Experimental data as given in US12258328B2, “6-membered heteroaryl-containing aminopyridine compounds as EGFR inhibitors” (YUHAN CORPORATION, priority 2021, dated 2025).
Like-named read-outs stand apart in the source and are kept apart here.

What was measured:
EGFR L858R/T790M/C797S = EGFR L858R/T790M/C797S (Homo sapiens, UniProt P00533, C797S/L858R/T790M); experiment: Biochemical EGFR kinase assay (Lance Ultra TR-FRET), triple mutant L858R/T790M/C797S
Outline: (§1)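 Kinase activity is measured by TR-FRET phosphopeptide detection. Compounds span 0.003 μM to 10 μM; the 1 h reaction at room temperature is quenched with EDTA, then labelled antibody (2 nM) is incubated 60 min before reading.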

EGFR del19/C797S = EGFR del19/C797S (Homo sapiens, UniProt P00533, C797S/DEL746-750); experiment: Biochemical EGFR kinase assay (Lance Ultra TR-FRET), double mutant del19/C797S
EGFR del19/C797S, sequence (P00533 with tags, fused parts or gaps DEL746-750/C797S): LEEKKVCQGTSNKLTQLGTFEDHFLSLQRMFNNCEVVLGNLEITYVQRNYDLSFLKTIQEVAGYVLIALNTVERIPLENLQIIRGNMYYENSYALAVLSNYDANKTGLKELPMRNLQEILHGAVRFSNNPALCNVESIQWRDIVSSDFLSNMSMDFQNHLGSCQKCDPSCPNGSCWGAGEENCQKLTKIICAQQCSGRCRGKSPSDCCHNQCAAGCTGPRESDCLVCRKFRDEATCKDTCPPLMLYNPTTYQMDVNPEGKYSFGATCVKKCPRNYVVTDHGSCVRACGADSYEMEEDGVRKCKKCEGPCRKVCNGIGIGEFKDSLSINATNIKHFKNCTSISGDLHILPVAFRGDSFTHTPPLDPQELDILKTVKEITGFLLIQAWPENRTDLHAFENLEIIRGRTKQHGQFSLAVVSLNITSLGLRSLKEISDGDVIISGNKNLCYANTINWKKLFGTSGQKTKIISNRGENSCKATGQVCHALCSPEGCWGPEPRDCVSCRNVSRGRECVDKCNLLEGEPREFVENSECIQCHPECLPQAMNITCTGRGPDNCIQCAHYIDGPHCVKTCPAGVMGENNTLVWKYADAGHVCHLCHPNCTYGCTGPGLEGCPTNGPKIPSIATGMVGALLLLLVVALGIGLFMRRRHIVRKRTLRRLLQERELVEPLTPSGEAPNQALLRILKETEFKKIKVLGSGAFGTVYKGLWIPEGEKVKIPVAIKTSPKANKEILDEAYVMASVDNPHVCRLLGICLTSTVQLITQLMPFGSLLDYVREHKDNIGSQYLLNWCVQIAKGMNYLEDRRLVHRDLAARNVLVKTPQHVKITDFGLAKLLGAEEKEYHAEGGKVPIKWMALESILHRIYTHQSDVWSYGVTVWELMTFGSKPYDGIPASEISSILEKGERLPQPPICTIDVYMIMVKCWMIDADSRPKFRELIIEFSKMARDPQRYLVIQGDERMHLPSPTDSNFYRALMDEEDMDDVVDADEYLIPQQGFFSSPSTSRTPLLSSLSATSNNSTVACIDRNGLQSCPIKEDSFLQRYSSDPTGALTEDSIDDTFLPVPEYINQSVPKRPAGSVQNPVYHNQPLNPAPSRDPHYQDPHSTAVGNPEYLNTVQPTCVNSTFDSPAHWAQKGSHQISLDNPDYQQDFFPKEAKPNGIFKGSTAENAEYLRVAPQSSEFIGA
Outline: as §1

EGFR L858R/C797S = EGFR L858R/C797S (Homo sapiens, UniProt P00533, C797S/L858R); experiment: Biochemical EGFR kinase assay (Lance Ultra TR-FRET), double mutant L858R/C797S
EGFR L858R/C797S, sequence (P00533 25-1210 C797S/L858R): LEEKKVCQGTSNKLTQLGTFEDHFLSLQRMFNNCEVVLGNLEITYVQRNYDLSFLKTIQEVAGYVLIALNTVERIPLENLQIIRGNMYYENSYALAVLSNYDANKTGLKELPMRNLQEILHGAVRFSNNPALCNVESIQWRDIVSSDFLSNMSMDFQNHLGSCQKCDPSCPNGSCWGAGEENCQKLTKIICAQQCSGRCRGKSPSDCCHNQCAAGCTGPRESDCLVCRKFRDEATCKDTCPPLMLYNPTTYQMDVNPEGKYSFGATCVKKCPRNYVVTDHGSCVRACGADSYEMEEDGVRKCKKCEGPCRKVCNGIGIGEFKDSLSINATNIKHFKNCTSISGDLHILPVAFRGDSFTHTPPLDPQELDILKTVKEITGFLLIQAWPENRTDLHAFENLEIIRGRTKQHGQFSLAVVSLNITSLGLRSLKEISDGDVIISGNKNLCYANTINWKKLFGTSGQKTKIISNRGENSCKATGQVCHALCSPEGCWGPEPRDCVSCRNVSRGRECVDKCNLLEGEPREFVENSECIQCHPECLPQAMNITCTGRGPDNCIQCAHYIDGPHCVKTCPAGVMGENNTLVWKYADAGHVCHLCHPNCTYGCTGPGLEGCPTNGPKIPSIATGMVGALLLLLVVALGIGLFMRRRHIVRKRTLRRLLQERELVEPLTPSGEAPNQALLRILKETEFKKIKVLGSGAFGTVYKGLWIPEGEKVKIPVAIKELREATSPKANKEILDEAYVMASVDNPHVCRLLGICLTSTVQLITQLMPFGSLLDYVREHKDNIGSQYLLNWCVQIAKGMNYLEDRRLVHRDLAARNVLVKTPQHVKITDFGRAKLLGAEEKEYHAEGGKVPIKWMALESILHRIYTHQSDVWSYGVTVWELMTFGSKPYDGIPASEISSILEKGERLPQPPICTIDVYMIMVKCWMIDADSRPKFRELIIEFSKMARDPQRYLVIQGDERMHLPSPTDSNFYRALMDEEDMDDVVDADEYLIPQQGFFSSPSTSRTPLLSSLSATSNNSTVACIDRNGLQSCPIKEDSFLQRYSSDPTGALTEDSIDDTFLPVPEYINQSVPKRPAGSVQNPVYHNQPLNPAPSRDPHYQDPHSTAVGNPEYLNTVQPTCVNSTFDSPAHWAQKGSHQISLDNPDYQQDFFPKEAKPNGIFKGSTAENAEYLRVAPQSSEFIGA
Outline: as §1

EGFR del19/T790M/C797S = EGFR del19/T790M/C797S (Homo sapiens, UniProt P00533, C797S/DEL746-750/T790M); experiment: Biochemical EGFR kinase assay (Lance Ultra TR-FRET), triple mutant del19/T790M/C797S
EGFR del19/T790M/C797S, sequence (P00533 with tags, fused parts or gaps DEL746-750/T790M/C797S): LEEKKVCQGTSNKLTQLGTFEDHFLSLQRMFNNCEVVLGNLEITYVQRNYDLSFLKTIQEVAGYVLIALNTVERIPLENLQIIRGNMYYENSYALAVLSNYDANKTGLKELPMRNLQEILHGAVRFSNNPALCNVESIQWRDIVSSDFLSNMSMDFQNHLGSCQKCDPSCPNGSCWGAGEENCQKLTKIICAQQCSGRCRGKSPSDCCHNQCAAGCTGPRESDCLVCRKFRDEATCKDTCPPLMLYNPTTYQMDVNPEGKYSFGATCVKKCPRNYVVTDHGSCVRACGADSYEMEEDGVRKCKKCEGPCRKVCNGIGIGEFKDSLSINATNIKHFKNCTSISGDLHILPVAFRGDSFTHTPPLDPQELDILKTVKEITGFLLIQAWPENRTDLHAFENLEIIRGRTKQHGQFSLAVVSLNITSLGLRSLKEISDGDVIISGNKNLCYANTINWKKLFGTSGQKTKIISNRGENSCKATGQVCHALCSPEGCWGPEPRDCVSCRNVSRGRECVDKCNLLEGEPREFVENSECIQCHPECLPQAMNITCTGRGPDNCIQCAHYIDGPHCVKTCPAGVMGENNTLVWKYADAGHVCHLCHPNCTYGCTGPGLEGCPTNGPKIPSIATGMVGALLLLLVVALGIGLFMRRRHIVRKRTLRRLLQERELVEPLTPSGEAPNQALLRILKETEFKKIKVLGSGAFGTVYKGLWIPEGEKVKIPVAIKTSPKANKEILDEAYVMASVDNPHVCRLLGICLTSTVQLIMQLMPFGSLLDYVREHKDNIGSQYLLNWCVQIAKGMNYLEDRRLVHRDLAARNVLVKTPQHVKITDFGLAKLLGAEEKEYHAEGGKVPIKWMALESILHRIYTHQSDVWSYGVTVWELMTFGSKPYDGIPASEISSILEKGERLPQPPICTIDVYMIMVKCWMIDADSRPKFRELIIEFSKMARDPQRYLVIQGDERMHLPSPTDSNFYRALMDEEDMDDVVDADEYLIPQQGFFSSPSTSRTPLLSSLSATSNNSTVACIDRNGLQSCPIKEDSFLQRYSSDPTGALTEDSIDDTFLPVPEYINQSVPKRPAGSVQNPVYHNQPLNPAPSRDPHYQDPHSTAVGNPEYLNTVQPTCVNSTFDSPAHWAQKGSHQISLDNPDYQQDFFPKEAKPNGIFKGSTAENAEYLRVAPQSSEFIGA
Outline: as §1

EGFR wildtype = EGFR wildtype (Homo sapiens, UniProt P00533); experiment: Biochemical EGFR kinase assay (Lance Ultra TR-FRET), wildtype
Outline: as §1

[1] = ATP at Km, read-out: IC50 L858R/T790M/C797S, Km ATP
[2] = IC50 L858R/T790M/C797S, 100 μM ATP
[3] = ATP at Km, read-out: IC50 del19/C797S, Km ATP
[4] = ATP at Km, read-out: IC50 L858R/C797S, Km ATP
[5] = ATP at Km, read-out: IC50 del19/T790M/C797S, Km ATP
[6] = IC50 del19/T790M/C797S, 100 μM ATP
[7] = ATP at Km, read-out: IC50 WT, Km ATP
[8] = Km ATP, read-out: IC50 L858R/T790M/C797S (nM) Km ATP
[9] = Km ATP, read-out: IC50 del19/C797S (nM) Km ATP
[10] = Km ATP, read-out: IC50 L858R/C797S (nM) Km ATP
[11] = Km ATP, read-out: IC50 del19/T790M/C797S (nM) Km ATP
[12] = Km ATP, read-out: IC50 WT (nM) Km ATP
[13] = IC50 L858R/T790M/C797S (nM) 100 μM ATP, 100 μM ATP
[14] = IC50 del19/C797S (nM) 100 μM ATP, 100 μM ATP
[15] = IC50 L858R/C797S (nM) 100 μM ATP, 100 μM ATP
[16] = IC50 del19/T790M/C797S (nM) 100 μM ATP, 100 μM ATP
[17] = IC50 WT (nM) 100 μM ATP, 100 μM ATP

EGFR L858R/T790M/C797S, sequence (P00533 25-1210 T790M/C797S/L858R): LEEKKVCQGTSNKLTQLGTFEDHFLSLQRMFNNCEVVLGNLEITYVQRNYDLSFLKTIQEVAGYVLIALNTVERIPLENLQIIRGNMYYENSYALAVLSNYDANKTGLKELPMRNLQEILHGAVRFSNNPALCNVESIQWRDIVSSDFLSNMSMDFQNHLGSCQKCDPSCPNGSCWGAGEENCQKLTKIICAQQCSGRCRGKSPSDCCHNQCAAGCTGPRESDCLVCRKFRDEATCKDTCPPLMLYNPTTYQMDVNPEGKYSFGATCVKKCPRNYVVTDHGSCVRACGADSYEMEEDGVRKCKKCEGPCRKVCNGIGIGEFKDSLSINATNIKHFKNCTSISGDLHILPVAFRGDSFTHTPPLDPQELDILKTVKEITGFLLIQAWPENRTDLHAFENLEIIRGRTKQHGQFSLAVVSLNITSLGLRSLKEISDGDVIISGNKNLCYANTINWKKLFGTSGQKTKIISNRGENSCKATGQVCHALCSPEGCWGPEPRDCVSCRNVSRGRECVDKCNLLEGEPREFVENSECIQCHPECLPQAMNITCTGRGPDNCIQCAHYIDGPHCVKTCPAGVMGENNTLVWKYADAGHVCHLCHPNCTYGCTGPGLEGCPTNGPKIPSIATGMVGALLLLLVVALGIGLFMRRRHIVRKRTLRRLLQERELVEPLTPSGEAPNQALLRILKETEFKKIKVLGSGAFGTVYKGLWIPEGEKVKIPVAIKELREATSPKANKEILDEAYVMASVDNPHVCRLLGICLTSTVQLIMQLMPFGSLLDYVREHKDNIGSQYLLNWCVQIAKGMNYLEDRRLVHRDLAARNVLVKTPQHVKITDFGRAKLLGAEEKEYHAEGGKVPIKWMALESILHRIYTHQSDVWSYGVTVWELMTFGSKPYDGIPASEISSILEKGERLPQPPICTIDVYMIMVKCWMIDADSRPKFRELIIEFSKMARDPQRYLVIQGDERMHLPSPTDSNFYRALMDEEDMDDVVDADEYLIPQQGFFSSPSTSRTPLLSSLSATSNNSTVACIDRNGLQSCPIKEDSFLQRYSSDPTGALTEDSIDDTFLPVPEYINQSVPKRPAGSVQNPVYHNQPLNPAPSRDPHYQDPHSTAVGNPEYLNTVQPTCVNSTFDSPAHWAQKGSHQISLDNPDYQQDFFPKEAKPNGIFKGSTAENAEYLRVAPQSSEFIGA

Compound | IC50 (EGFR L858R/T790M/C797S; [1]) | IC50 (EGFR L858R/T790M/C797S; [2]) | IC50 (EGFR del19/C797S; [3]) | IC50 (EGFR del19/C797S; IC50 del19/C797S, 100 μM ATP) | IC50 (EGFR L858R/C797S; [4]) | IC50 (EGFR L858R/C797S; IC50 L858R/C797S, 100 μM ATP) | IC50 (EGFR del19/T790M/C797S; [5]) | IC50 (EGFR del19/T790M/C797S; [6]) | IC50 (EGFR wildtype; [7]) | IC50 (EGFR wildtype; IC50 WT, 100 μM ATP) | IC50 (EGFR L858R/T790M/C797S; [8]) | IC50 (EGFR del19/C797S; [9]) | IC50 (EGFR L858R/C797S; [10]) | IC50 (EGFR del19/T790M/C797S; [11]) | IC50 (EGFR wildtype; [12]) | IC50 (EGFR L858R/T790M/C797S; [13]) | IC50 (EGFR del19/C797S; [14]) | IC50 (EGFR L858R/C797S; [15]) | IC50 (EGFR del19/T790M/C797S; [16]) | IC50 (EGFR wildtype; [17])
O=S(=O)(C1CC1)n1cc(-c2nccc(Nc3cc(N[C@H]4CC[C@@H](NCC(F)F)CC4)c(-c4cccc(F)n4)cn3)n2)cn1 [Example 275, N^6′-(2-(1-(Cyclopropylsulfonyl)-1H-pyrazol-4-yl)pyrimidin-4-yl)-N^4′-((1s,4s)-4-((2,2-difluoroethyl)amino)cyclohexyl)-6-fluoro-[2,3′-bipyridine]-4′,6′-diamine] | 0.7 nM | 1.2 nM | 2.5 nM | 2.6 nM | 4.1 nM | 11.4 nM | 0.9 nM | 1.1 nM | 18.5 nM | > 10000 nM |  |  |  |  |  |  |  |  |  | 
CN1CCN(S(=O)(=O)c2ccc(-c3cnc(Nc4ccnc(-c5cnn(S(=O)(=O)C6CC6)c5)n4)cc3N[C@H]3CC[C@@](C)(O)CC3)nc2)CC1 [Example 188, (1s,4s)-4-((6′-((2-(1-(Cyclopropylsulfonyl)-1H-pyrazol-4-yl)pyrimidin-4-yl)amino)-5-((4-methylpiperazin-1-yl)sulfonyl)-[2,3′-bipyridin]-4′-yl)amino)-1-methylcyclohexan-1-ol] |  | 1 nM | 2.3 nM | 1.8 nM | 0.8 nM | 11.3 nM |  | 1.1 nM | 9.5 nM | > 10000 nM |  |  |  |  |  |  |  |  |  | 
O=S(=O)(C1CC1)n1cc(-c2nccc(Nc3cc(N[C@H]4CC[C@@H](CO)CC4)c(-c4ccnc(N[C@H]5CC[C@@H](CO)CC5)n4)cn3)n2)cn1 [Example 192, ((1s,4s)-4-((4-(6-((2-(1-(Cyclopropylsulfonyl)-1H-pyrazol-4-yl)pyrimidin-4-yl)amino)-4-(((1s,4s)-4-(hydroxymethyl)cyclohexyl)amino)pyridin-3-yl)pyrimidin-2-yl)amino)cyclohexyl)methanol] |  | 0.5 nM |  | 2 nM |  | 7.8 nM |  | 0.6 nM |  | 6510 nM |  |  |  |  |  |  |  |  |  | 
FC(F)Cn1cc(-c2nccc(Nc3cc(N[C@H]4CC[C@@H](F)CC4)c(-c4ccc(N5CCOCC5)cn4)cn3)n2)cn1 [Example 137, N^6′-(2-(1-(2,2-Difluoroethyl)-1H-pyrazol-4-yl)pyrimidin-4-yl)-N^4′-((1s,4s)-4-fluorocyclohexyl)-5-morpholino-[2,3′-bipyridine]-4′,6′-diamine] |  |  |  |  |  |  |  |  |  |  | 0.2 nM | 74.4 nM | 6.4 nM | 1.1 nM | 272 nM |  |  |  |  | 
Cc1cnc(-c2cnc(Nc3ccnc(-c4cnn(S(=O)(=O)C5CC5)c4)n3)cc2N[C@H]2CC[C@@](C)(O)CC2)cn1 [Example 59, (1s,4s)-4-((2-((2-(1-(Cyclopropylsulfonyl)-1H-pyrazol-4-yl)pyrimidin-4-yl)amino)-5-(5-methylpyrazin-2-yl)pyridin-4-yl)amino)-1-methylcyclohexan-1-ol] |  |  |  |  |  |  |  |  |  |  | 0.5 nM | 0.6 nM | 1 nM | 0.3 nM | 14.8 nM | 0.7 nM | 0.9 nM | 7.4 nM | 0.4 nM | > 10000 nM
O=S(=O)(C1CC1)n1cc(-c2nccc(Nc3cc(N[C@H]4CC[C@@H](CO)CC4)c(-c4ccc(C(F)(F)CO)cn4)cn3)n2)cn1 [Example 244, 2-(6′-((2-(1-(Cyclopropylsulfonyl)-1H-pyrazol-4-yl)pyrimidin-4-yl)amino)-4′-(((1s,4s)-4-(hydroxymethyl)cyclohexyl)amino)-[2,3′-bipyridin]-5-yl)-2,2-difluoroethan-1-ol] | 0.2 nM | 0.3 nM | 0.6 nM | 0.9 nM | 0.4 nM | 0.9 nM | 0.9 nM | 1.7 nM | 1.8 nM | 1420 nM |  |  |  |  |  |  |  |  |  | 
CN1CCN(c2ccc(-c3cnc(Nc4ccnc(-c5cnn(S(=O)(=O)C6CC6)c5)n4)cc3N[C@H]3CC[C@@](C)(O)CC3)nc2)CC1 [Example 83, (1s,4s)-4-((6′-((2-(1-(Cyclopropylsulfonyl)-1H-pyrazol-4-yl)pyrimidin-4-yl)amino)-5-(4-methylpiperazin-1-yl)-[2,3′-bipyridin]-4′-yl)amino)-1-methylcyclohexan-1-ol] |  |  |  |  |  |  |  |  |  |  | 0.2 nM | 0.2 nM | 0.1 nM | 0.7 nM | 0.2 nM | 0.3 nM | 0.2 nM | 0.4 nM | 0.6 nM | 24.9 nM
C[C@]1(O)CC[C@@H](Nc2cc(Nc3ccnc(-c4cnn(S(=O)(=O)C5CC5)c4)n3)ncc2-c2ccc(N3CCC(F)(F)CC3)nn2)CC1 [Example 68, (1s,4s)-4-((2-((2-(1-(Cyclopropylsulfonyl)-1H-pyrazol-4-yl)pyrimidin-4-yl)amino)-5-(6-(4,4-difluoropiperidin-1-yl)pyridazin-3-yl)pyridin-4-yl)amino)-1-methylcyclohexan-1-ol] |  |  |  |  |  |  |  |  |  |  | 0.8 nM | 2.8 nM | 1.1 nM | 0.9 nM | 23.2 nM | 0.8 nM | 4.9 nM | 124 nM |  | > 10000 nM
C[C@]1(O)CC[C@@H](Nc2cc(Nc3ccnc(-c4cnn(S(=O)(=O)C5CC5)c4)n3)ncc2-c2ccc(OC(F)F)cn2)CC1 [Example 332, (1s,4s)-4-((6′-((2-(1-(Cyclopropylsulfonyl)-1H-pyrazol-4-yl)pyrimidin-4-yl)amino)-5-(difluoromethoxy)-[2,3′-bipyridin]-4′-yl)amino)-1-methylcyclohexan-1-ol] |  |  |  |  |  |  |  |  |  |  | 0.7 nM | 2.4 nM | 1.8 nM | 1.6 nM | 21 nM |  |  |  |  | 
O=S(=O)(C1CC1)n1cc(-c2nccc(Nc3cc(N[C@H]4CC[C@@H](CO)CC4)c(-c4cc(OCCN5CCOCC5)ccn4)cn3)n2)cn1 [Example 212, ((1s,4s)-4-((6′-((2-(1-(Cyclopropylsulfonyl)-1H-pyrazol-4-yl)pyrimidin-4-yl)amino)-4-(2-morpholinoethoxy)-[2,3′-bipyridin]-4′-yl)amino)cyclohexyl)methanol] | 0.4 nM | 0.6 nM | 1.2 nM | 2.7 nM | 0.5 nM | 18.7 nM | 0.5 nM | 1 nM | 3.4 nM | 7860 nM |  |  |  |  |  |  |  |  |  | 
O=S(=O)(C1CC1)n1cc(-c2nccc(Nc3cc(N[C@H]4CC[C@@H](CO)CC4)c(-c4cc(N5CCC(F)(F)CC5)ccn4)cn3)n2)cn1 [Example 100, ((1s,4s)-4-((6′-((2-(1-(Cyclopropylsulfonyl)-1H-pyrazol-4-yl)pyrimidin-4-yl)amino)-4-(4,4-difluoropiperidin-1-yl)-[2,3′-bipyridin]-4′-yl)amino)cyclohexyl)methanol] |  |  |  |  |  |  |  |  |  |  | 1.3 nM | 6.5 nM | 12.9 nM | 6.4 nM | 12.7 nM | 5.3 nM | 10.8 nM | 24.9 nM | 8.1 nM | 7220 nM
C[C@]1(O)CC[C@@H](Nc2cc(Nc3ccnc(-c4cnn(S(=O)(=O)C5CC5)c4)n3)ncc2-c2ncccc2OCC(F)F)CC1 [Example 334, (1s,4s)-4-((6′-((2-(1-(Cyclopropylsulfonyl)-1H-pyrazol-4-yl)pyrimidin-4-yl)amino)-3-(2,2-difluoroethoxy)-[2,3′-bipyridin]-4′-yl)amino)-1-methylcyclohexan-1-ol] |  |  |  |  |  |  |  |  |  |  | 1.4 nM | 170 nM | 191 nM | 2.1 nM | 189 nM |  |  |  |  | 
